In patent publication US12636260B2, “Application of α-asarone in preparation of medicine for preventing or treating hemorrhagic stroke” (CHENGDU XINRUI TAIKANG TECHNOLOGY CO., LTD., priority 2021, dated 2026):

Key:
PC12 cells = assay: Oxyhemoglobin-damaged PC12 cells, MTT; type: cell-based; details: α-asarone emulsion 1, 5, 10, 25, 50 μM pre-incubated 2 hours, 6 μM oxyhemoglobin 24 hours
Procedure: PC12 cells in the logarithmic phase of growth were seeded in a 96-well plate (1×10^4 cells/100 μL/well) with the marginal wells filled with sterile PBS, and cultured with complete culture medium at 37° C. with 5% CO2 for 24 hours until the cells completely adhered to the wall. The supernatant was discarded followed by oxyhemoglobin incubation at 37° C. with 5% CO2 for 24 hours with final concentrations of 0 μM, 4 μM, 6 μM, 8 μM and 10 μM, respectively. Subsequently, 10 μL MTT (5 mg/mL) was added into each well and incubated at 37° C. with 5% CO2 for 4 hours. Then, the supernatant was discarded, the formazan was dissolved with 100 μL DMSO, and the optical density (OD) was gauged at 570 nm by a microplate reader after incubation at 37° C. for 15 minutes (500 r/min) to calculate the cell viability. According to the formula “fold of cell abnormal proliferation=[(average absorbance value of the experimental group−average absorbance value of zero-adjusting well)/(average absorbance value of the control group−average absorbance value of zero-adjusting well)”, 6 μM oxyhemoglobin was screened out for following in vitro pharmacodynamic experiment since it produced a maximum of 1.5-fold abnormal cell proliferation compared to the control group. […]

mouse bone marrow cells = assay: Mouse bone marrow micronucleus test by flow cytometry; type: in vivo; details: mice; for MNPCE / PCE / fMNPCE (‰): 4 days
Procedure: Experimental grouping and administration: The animals were randomly divided into five groups with 10 […] in each group: blank control group (blank group, administrated blank emulsion with the same volume as the high-dose group of α-asarone), cyclophosphamide group (CTX group, 40 mg/kg), low dose of α-asarone emulsion injection group (prepared by preparation embodiment 7, 100 mg/kg/day, ASA-L group), medium dose of α-asarone emulsion injection group (prepared by preparation embodiment 7, 150 mg/kg/day, ASA-M group), and high dose of α-asarone emulsion injection group (prepared from preparation embodiment 7, 200 mg/kg/day, ASA-H group).
All drugs were administrated through the tail vein for continuous 4 days except for the single injection of the positive control drug cyclophosphamide (CTX) 24 hours before sampling. After 24 hours of the last administration, the mice were sacrificed to separate both femurs. The femoral bone marrow cells were washed with PBS and filtered by 300 mesh nylon cell sieves to prepare a single-cell suspension. The suspension was centrifuged at 1650 rpm for 5 min, and the cell concentration was adjusted to 5×10^6 cells/mL by PBS resuspension. For each sample, 100 μL of the cell suspension was incubated with 400 μL of the PIPES-PI solution (10 mL of PIPES solution (concentration of 3.5 mg/mL)+0.5 mg PI+0.01 mL Triton X-100 (concentration of 0.1%)), gently blown and mixed, at 4° C. in the dark for 30 min and detected by a flow cytometry. […] The higher the value, the stronger the genotoxicity.

[1] = ASA-H group, α-asarone emulsion injection 200 mg/kg/day tail vein
[2] = ASA-L group, α-asarone emulsion injection 100 mg/kg/day tail vein
[3] = ASA-M group, α-asarone emulsion injection 150 mg/kg/day tail vein

With `C/C=C/c1cc(OC)c(OC)cc1OC` [α-asarone, trans-2,4,5-trimethoxy-1-propenylbenzene] the “abnormal increase of cell vitality caused by oxyhemoglobin” value (PC12 cells) was “significantly reduced”, the MNPCE (mouse bone marrow cells; [1]) was 0.55 ± 0.43 and the PCE (mouse bone marrow cells; [1]) was 41.39 ± 6.11. The “fMNPCE (‰)” value (mouse bone marrow cells; [1]) was 12.60 ± 8.53 ‰, the MNPCE (mouse bone marrow cells; [2]) was 0.39 ± 0.11 and the PCE (mouse bone marrow cells; [2]) was 40.58 ± 9.17. For the same compound, the “fMNPCE (‰)” value (mouse bone marrow cells; [2]) was 10.10 ± 2.75 ‰, the MNPCE (mouse bone marrow cells; [3]) was 0.47 ± 0.19 and the PCE (mouse bone marrow cells; [3]) was 38.37 ± 3.18. For the same compound, the “fMNPCE (‰)” value (mouse bone marrow cells; [3]) was 12.34 ± 5.52 ‰, the “micronucleus rate compared to the blank emulsion group” value (mouse bone marrow cells; different doses of α-asarone emulsion injection (100, 150, 200 mg/kg/day)) was “no significant difference” and the “changes in the micronucleus rate of mouse bone marrow cells” value (mouse bone marrow cells; intravenous dose of up to 200 mg/kg α-asarone emulsion injection) was “no significant changes”.
